Data from ChEMBL document CHEMBL1157239, “Hurghadolide A and swinholide I, potent actin-microfilament disrupters from the Red Sea sponge Theonella swinhoei” (J Nat Prod, 2006).
In brackets after ≈: the same amount, converted by molar mass. Several values for one entry are separate records, joined by “and”; a condition that tells them apart may be missing. Equal values may be shown once. Activity calls are given as the source filed them. No cut-off for these calls is given here.

Assays:
Candida albicans [1] = assay: Antifungal activity against amphotericin B-resistant Candida albicans; assay type: functional
Candida albicans [2] = assay: Antifungal activity against wild-type Candida albicans; assay type: functional
HCT-116 = assay: Cytotoxicity against human HCT116 cells after 72 hrs by MTS reduction assay; assay type: functional, cell-based; settings: HCT-116, 72 h
A10 [3] = assay: Disruption of actin cytoskeleton in rat A10 cells assessed as generation of binucleated cells at 70 nM after 24 hrs by TRITC-phalloidin assay; assay type: functional, cell-based
A10 [4] = assay: Disruption of actin cytoskeleton in rat A10 cells assessed as generation of binucleated cells at 7.3 nM after 24 hrs by TRITC-phalloidin assay; assay type: functional, cell-based

Structure (SMILES) | MIC (Candida albicans [1]) | MIC (Candida albicans [2]) | IC50 (HCT-116) | Activity (A10 [3]) | Activity (A10 [4])
CO[C@@H]1C[C@H](C)O[C@@H](C(O)C[C@H](C)[C@H](O)[C@H](C)[C@H]2OC(=O)/C=C/C(C)=C/C[C@H](O)C[C@@H]3C=CC[C@@H](C[C@H](OC)[C@@H](C)[C@@H](O)C[C@@H](O)[C@H](C)[C@@H]([C@@H](C)[C@@H](O)[C@@H](C)CC[C@H]4C[C@H](OC)C[C@H](C)O4)OC(=O)/C=C/C(C)=C/C[C@H](O)C[C@@H]4C=CC[C@@H](C[C@H](OC)[C@@H](C)[C@@H](O)C[C@@H](O)[C@@H]2C)O4)O3)C1 (some centres undefined) [Swinholide I] | 500 µg/mL (≈ 356 µM) | 62.2 µg/mL (≈ 44.2 µM) | 5.6 nM and 0.008 µg/mL | Active | –
CO[C@H]1C[C@H](CC[C@H](C)[C@H](O)[C@H](C)[C@H]2OC(=O)/C=C/C(C)=C/C[C@H](O)C[C@@H]3C=CC[C@@H](C[C@H](OC)[C@@H](C)[C@@H](O)C[C@@H](O)[C@H](C)[C@@H]([C@@H](C)[C@@H](O)[C@@H](C)CC[C@H]4C[C@H](OC)C[C@H](C)O4)OC(=O)/C(C)=C/C[C@H](O)C[C@@H]4C=CC[C@@H](C[C@H](OC)[C@@H](C)[C@@H](O)C[C@@H](O)[C@@H]2C)O4)O3)O[C@@H](C)C1 [HURGHADOLIDE A] | 31.3 µg/mL (≈ 22.9 µM) | 31.3 µg/mL (≈ 22.9 µM) | 365 nM and 0.5 µg/mL | – | –
C[C@@H]1[C@H](O)[C@@H](C)/C=C/C=C/C=C/C=C/C=C/C=C/C=C/[C@H](O[C@@H]2O[C@H](C)[C@@H](O)[C@H](N)[C@@H]2O)C[C@@H]2O[C@](O)(C[C@@H](O)C[C@@H](O)[C@H](O)CC[C@@H](O)C[C@@H](O)CC(=O)O[C@H]1C)C[C@H](O)[C@H]2C(=O)O [AMPHOTERICIN B] | – | 1.56 µg/mL (≈ 1.69 µM) | – | – | –
CO[C@H]1C[C@H](CC[C@H](C)[C@H](O)[C@H](C)[C@H]2OC(=O)/C=C/C(C)=C/C[C@H](O)C[C@@H]3C=CC[C@@H](C[C@H](OC)[C@@H](C)[C@@H](O)C[C@@H](O)[C@H](C)[C@@H]([C@@H](C)[C@@H](O)[C@@H](C)CC[C@H]4C[C@H](OC)C[C@H](C)O4)OC(=O)/C=C/C(C)=C/C[C@H](O)C[C@@H]4C=CC[C@@H](C[C@H](OC)[C@@H](C)[C@@H](O)C[C@@H](O)[C@@H]2C)O4)O3)O[C@@H](C)C1 | – | – | – | – | Active
